Measurements: ChEMBL document CHEMBL1201862, “PubChem BioAssay data set” (2004)
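The compound was tested at five concentrations on cells cultured in 96-well plates, with a 48-hour exposure period. At the GI50, growth is halved.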 The source made the active and inactive calls. Rule as the data show it: active = GI50 up to about 1.1 µM and inactive = higher.

Legend:
Assay in all cases: NCI tumour cell line growth inhibition, 48 h
A549 = tested on: A549
CAKI-1 = tested on: CAKI-1
CCRF-CEM = tested on: CCRF-CEM
HOP-62 = tested on: HOP-62
HT-29 = tested on: HT-29
IGROV-1 = tested on: IGROV-1
MDA-MB-231 = tested on: MDA-MB-231
NCI-H226 = tested on: NCI-H226
OVCAR-8 = tested on: OVCAR-8
PC-3 = tested on: PC-3
RXF 393 = tested on: RXF 393
SK-MEL-28 = tested on: SK-MEL-28
SK-MEL-2 = tested on: SK-MEL-2
SK-MEL-5 = tested on: SK-MEL-5
SN12C = tested on: SN12C
UACC-257 = tested on: UACC-257
COLO 205 = tested on: COLO 205
NCI-H23 = tested on: NCI-H23
SK-OV-3 = tested on: SK-OV-3
MDA-MB-435 = tested on: MDA-MB-435

Row | Compound | GI50 (A549) | GI50 (CAKI-1) | GI50 (CCRF-CEM) | GI50 (HOP-62) | GI50 (HT-29) | GI50 (IGROV-1) | GI50 (MDA-MB-231) | GI50 (NCI-H226) | GI50 (OVCAR-8) | GI50 (PC-3) | GI50 (RXF 393) | GI50 (SK-MEL-28) | GI50 (SK-MEL-2) | GI50 (SK-MEL-5) | GI50 (SN12C) | GI50 (UACC-257) | GI50 (COLO 205) | GI50 (NCI-H23) | GI50 (SK-OV-3) | GI50 (MDA-MB-435)
1 | COC(=O)c1ccccc1/C=C1\Cc2c(C)cc(C)cc2C1=O | > 100 µM (inactive) | > 100 µM (inactive) | > 100 µM (inactive) | > 100 µM (inactive) | > 100 µM (inactive) | > 100 µM (inactive) | > 100 µM (inactive) | > 100 µM (inactive) | > 100 µM (inactive) | > 100 µM (inactive) | > 100 µM (inactive) | > 100 µM (inactive) | > 100 µM (inactive) | > 100 µM (inactive) | > 100 µM (inactive) | > 100 µM (inactive) | – | – | – | –
2 | CCN(CCN(CC)C(=O)NC)C(=O)NC | > 100 µM (inactive) | – | > 100 µM (inactive) | > 100 µM (inactive) | > 100 µM (inactive) | > 100 µM (inactive) | > 100 µM (inactive) | > 100 µM (inactive) | > 100 µM (inactive) | > 100 µM (inactive) | > 100 µM (inactive) | > 100 µM (inactive) | > 100 µM (inactive) | > 100 µM (inactive) | > 100 µM (inactive) | > 100 µM (inactive) | > 100 µM (inactive) | > 100 µM (inactive) | > 100 µM (inactive) | –
3 | O=C(NCCCCCCCCCCCCNC(=O)Nc1cccc2ccccc12)Nc1cccc2ccccc12 | 18.2 µM (inactive) | 17.9 µM (inactive) | 16.6 µM (inactive) | 6.15 µM (inactive) | 21 µM (inactive) | 18.4 µM (inactive) | 20.7 µM (inactive) | – | 22.9 µM (inactive) | 16.2 µM (inactive) | 15.2 µM (inactive) | 19.5 µM (inactive) | 15.2 µM (inactive) | 20.8 µM (inactive) | 17.6 µM (inactive) | > 10 µM (inactive) | 20.6 µM (inactive) | 16.8 µM (inactive) | – | 17.9 µM (inactive)
4 | Cc1cccc(Nc2cn(COCc3ccccc3)c(=O)[nH]c2=O)c1 | > 100 µM (inactive) | > 100 µM (inactive) | > 100 µM (inactive) | 20.8 µM (inactive) | 64.6 µM (inactive) | 29.4 µM (inactive) | – | – | – | > 100 µM (inactive) | 56 µM (inactive) | > 100 µM (inactive) | – | > 100 µM (inactive) | > 100 µM (inactive) | > 100 µM (inactive) | 84.1 µM (inactive) | > 100 µM (inactive) | – | > 100 µM (inactive)
5 | CC(=O)NC1C(OCc2ccccc2)OC(CO)C(O)C1OC(C)C(=O)NC(C)C(=O)N[C@@H](CCC(=O)OCCCNC1c2ccccc2Nc2cccc([N+](=O)[O-])c21)C(N)=O (stereo partly drawn) | < 0.01 µM (active) | < 0.01 µM (active) | – | < 0.01 µM (active) | < 0.01 µM (active) | 0.0222 µM (active) | 0.0282 µM (active) | – | < 0.01 µM (active) | 0.0266 µM (active) | 0.0141 µM (active) | < 0.01 µM (active) | < 0.01 µM (active) | < 0.01 µM (active) | < 0.01 µM (active) | 0.0123 µM (active) | < 0.01 µM (active) | < 0.01 µM (active) | 0.0194 µM (active) | 0.0157 µM (active)
6 | Cc1cc(O)nc2c3c(ccc12)OC(C)(C)C=C3 | 7.33 µM (inactive) | 5.93 µM (inactive) | 3.71 µM (inactive) | 8.2 µM (inactive) | 5.66 µM (inactive) | 6.44 µM (inactive) | 5.78 µM (inactive) | – | 7.59 µM (inactive) | 5.9 µM (inactive) | 5.25 µM (inactive) | > 23.2 µM (inactive) | 10.2 µM (inactive) | 3.82 µM (inactive) | 5.98 µM (inactive) | > 25.3 µM (inactive) | 2.89 µM (inactive) | 5.46 µM (inactive) | 11.3 µM (inactive) | 1.82 µM (inactive)
7 | COC(=O)/C1=C/c2c([nH]c3ccccc23)/C(C(=O)OC)=C\c2c1[nH]c1ccccc21 [CAULERPIN] | 33.3 µM (inactive) | 37.9 µM (inactive) | – | 10.9 µM (inactive) | – | 7.53 µM (inactive) | 13.7 µM (inactive) | > 50 µM (inactive) | 26.6 µM (inactive) | – | 12.7 µM (inactive) | – | 14.4 µM (inactive) | 28.8 µM (inactive) | 34.4 µM (inactive) | > 50 µM (inactive) | > 50 µM (inactive) | 38.1 µM (inactive) | > 50 µM (inactive) | 14.7 µM (inactive)
8 | C/C=C1/C[C@@H](C)[C@@](C)(O)C(=O)OCC2=CC[N+]3([O-])CC[C@@H](OC1=O)[C@@H]23 (stereo partly drawn) [SENECIONINE N-OXIDE] | > 100 µM (inactive) | > 100 µM (inactive) | > 100 µM (inactive) | – | > 100 µM (inactive) | > 100 µM (inactive) | > 100 µM (inactive) | > 100 µM (inactive) | > 100 µM (inactive) | > 100 µM (inactive) | – | > 100 µM (inactive) | > 100 µM (inactive) | > 100 µM (inactive) | > 100 µM (inactive) | > 100 µM (inactive) | > 100 µM (inactive) | > 100 µM (inactive) | > 100 µM (inactive) | > 100 µM (inactive)
